Molecules are shown by their SMILES. Where two headings read alike, the source gives them in different places.

The values below come from patent US7776865B2, “Substituted pyrazolo[1,5-a]pyrimidines as protein kinase inhibitors” (Schering Corporation, priority 2005, dated 2010).

The target of one data set is T1, recombinant His-CHK1 (Homo sapiens, UniProt O14757).
T1 construct: His-CHK1, In House Lot P976, MW ˜30 KDa, stored at −80° C; fused on or other part: His tag
T1 sequence (O14757 1-265 limits assumed): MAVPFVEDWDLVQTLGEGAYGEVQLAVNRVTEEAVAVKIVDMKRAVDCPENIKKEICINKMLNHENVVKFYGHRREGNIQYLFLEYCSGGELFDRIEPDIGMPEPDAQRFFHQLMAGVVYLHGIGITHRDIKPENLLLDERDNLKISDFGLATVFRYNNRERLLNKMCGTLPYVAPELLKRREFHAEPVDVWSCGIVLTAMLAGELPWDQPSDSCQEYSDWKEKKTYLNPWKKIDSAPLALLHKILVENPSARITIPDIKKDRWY
Description: CHK1 SPA Assay. To be noted: CDC25C biotinylated peptide substrate, 1 uM ATP. The class given is biochemical.

The target of the next data set is T2, CDK2/cyclin A (Homo sapiens, UniProt P24941).
T2 construct: made in house; host or cells: SF9 cells (recombinant baculovirus, pFASTBAC)
Briefly: CDK2 Assay (in vitro kinase assay, cyclin A-dependent). It counts as biochemical.

The mark [1] stands for this setting: SPA, biotinylated Histone H1 peptide substrate, read-out: CDK2/cyclin A IC50.
Where [2] appears, read: read-out: CDK2/cyclin A IC50, SPA, biotinylated Histone H1 peptide substrate.

For `Cn1cc(-c2cnn3c(N)c(-c4ccncc4)c(C4CCCNC4)nc23)cn1` (centres unmarked), the IC50 on recombinant His-CHK1 (CHK1 IC50 [nM]) is 229 nM; on CDK2/cyclin A (setting [1]), 11300 nM.

On to `Cn1cc(-c2cnn3c(N)c(-c4ccccc4)c(C4CCCNC4)nc23)cn1` (centres unmarked), for which, on recombinant His-CHK1 (CHK1 IC50 [nM]), the IC50 was 563 nM.

With `Cn1cc(-c2cnn3c(N)c(-c4ccsc4)c(C4CCCNC4)nc23)cn1` (centres unmarked), the IC50 came out at 160 nM at recombinant His-CHK1 (CHK1 IC50 [nM]) and 2150 nM on CDK2/cyclin A (setting [1]).

`Cn1cc(-c2cnn3c(N)c(-c4ccoc4)c(C4CCCNC4)nc23)cn1` (centres unmarked): at recombinant His-CHK1 (CHK1 IC50 [nM]), the IC50 is 340 nM.

For `Cn1cc(-c2cnn3c(N)c(-c4cccnc4)c(C4CCCNC4)nc23)cn1` (centres unmarked), the IC50 on recombinant His-CHK1 (CHK1 IC50 [nM]) was 507 nM; on CDK2/cyclin A (setting [1]), 1480 nM.

For the compound `Cn1cc(-c2cnn3c(N)c(C4CC4)c(C4CCCNC4)nc23)cn1` (centres unmarked), the IC50 at recombinant His-CHK1 (CHK1 IC50 [nM]) was 17 nM; at CDK2/cyclin A (setting [1]), 167 nM.

Consider `C=C(C)c1c(C2CCCNC2)nc2c(-c3cnn(C)c3)cnn2c1N` (centres unmarked), for which the IC50 came to 67 nM on recombinant His-CHK1 (read-out: CHK1 IC50) and 201 nM against CDK2/cyclin A.

Turning to `Cn1cc(-c2cnn3c(N)c(-c4cnn(CCO)c4)c(C4CCCNC4)nc23)cn1` (centres unmarked), the IC50 on recombinant His-CHK1 (read-out: CHK1 IC50) came to 114 nM; at CDK2/cyclin A, 11700 nM.

For `Cn1cc(-c2c(C3CCCNC3)nc3c(-c4cnn(C)c4)cnn3c2N)cn1` (centres unmarked), the IC50 at recombinant His-CHK1 (CHK1 IC50 [nM]) amounted to 102 nM; at CDK2/cyclin A (setting [1]) it was 224000 nM.

As to `COC/C=C/c1c(C2CCCNC2)nc2c(-c3cnn(C)c3)cnn2c1N` (centres unmarked), on recombinant His-CHK1 (CHK1 IC50 [nM]), the IC50 was determined as 52 nM.

In the case of `Cn1cc(-c2cnn3c(N)c(-c4cccs4)c(C4CCCNC4)nc23)cn1` (centres unmarked), the IC50 at recombinant His-CHK1 (CHK1 IC50 [nM]) was found to be 86 nM.

Turning to `CCc1c(C2CCCNC2)nc2c(-c3cnn(C)c3)cnn2c1N` (centres unmarked), the IC50 on recombinant His-CHK1 (CHK1 IC50 [nM]) was 31 nM; on CDK2/cyclin A (setting [1]) it was 334 nM.

Consider `Cn1cc(-c2cnn3c(N)c(C#N)c(C4CCCNC4)nc23)cn1` (centres unmarked), for which the IC50 on recombinant His-CHK1 (CHK1 IC50 [nM]) worked out at 102 nM; at CDK2/cyclin A (setting [1]), 1720 nM.

Turning to `CC(=O)c1c(C2CCCNC2)nc2c(-c3cnn(C)c3)cnn2c1N` (centres unmarked), the IC50 was 8 nM at recombinant His-CHK1 (read-out: CHK1 IC50) and 33 nM against CDK2/cyclin A.

With `CC(=NO)c1c(C2CCCNC2)nc2c(-c3cnn(C)c3)cnn2c1N` (centres unmarked), the IC50 on recombinant His-CHK1 (read-out: CHK1 IC50) worked out at 59 nM.

In the case of `CCC(=O)c1c(C2CCCNC2)nc2c(-c3cnn(C)c3)cnn2c1N` (centres unmarked), the results for the IC50 at recombinant His-CHK1 (read-out: CHK1 IC50) and against CDK2/cyclin A were 12 nM and 38 nM, respectively.

Regarding `Cn1cc(-c2cnn3c(N)c(C(=O)Cc4ccccc4)c(C4CCCNC4)nc23)cn1` (centres unmarked), the IC50 came to 47 nM on recombinant His-CHK1 (read-out: CHK1 IC50) and 103 nM against CDK2/cyclin A.

As to `CC#Cc1c(C2CCCNC2)nc2c(-c3cnn(C)c3)cnn2c1N` (centres unmarked), the values for the IC50 on recombinant His-CHK1 (CHK1 IC50 [nM]) and at CDK2/cyclin A (setting [1]) were 44 nM and 1290 nM, respectively.

Turning to `Cc1nc2c(Br)cnn2c(N)c1CC(N)=O`, the IC50 came out at 4750 nM at recombinant His-CHK1 (read-out: CHK1 IC50) and 1190 nM at CDK2/cyclin A (setting [2]).

With `CNC(=O)Cc1c(C)nc2c(Br)cnn2c1N`, the IC50 on recombinant His-CHK1 (read-out: CHK1 IC50) is above 50000 nM; on CDK2/cyclin A (setting [2]), 41300 nM.

Consider `Cc1nc2c(Br)cnn2c(N)c1CCO`, for which the IC50 on recombinant His-CHK1 (read-out: CHK1 IC50) came to 29100 nM; on CDK2/cyclin A (setting [2]) it was 69 nM.

Turning to `Cc1nc2c(Br)cnn2c(N)c1CCC(N)=O`, the IC50 on recombinant His-CHK1 (read-out: CHK1 IC50) was above 50000 nM; at CDK2/cyclin A (setting [2]) it was 882 nM.

The term melting point denotes the temperature of the solid-liquid transition. The compound `Nc1c(-c2ccccc2)c(N2CC[C@H](N)C2)nc2c(Br)cnn12` gave a melting point of 167 to 170 °C. Further, the IC50 on recombinant His-CHK1 (read-out: CHK1 IC50) came out at 22600 nM.

On to `CCc1c(N2CC[C@H](N)C2)nc2c(Br)cnn2c1N`, for which the results for the IC50 at recombinant His-CHK1 (read-out: CHK1 IC50) and on CDK2/cyclin A (setting [2]) were 845 nM and 852 nM, respectively.

Turning to `Cc1c(N2CC[C@H](N)C2)nc2c(Br)cnn2c1N`, the IC50 at recombinant His-CHK1 (read-out: CHK1 IC50) worked out at 1580 nM; on CDK2/cyclin A (setting [2]), 754 nM.

Turning to `CC(O)c1c(C2CCCNC2)nc2c(-c3cnn(C)c3)cnn2c1N` (single isomer, unassigned) [drawing 212], the IC50 on recombinant His-CHK1 (read-out: CHK1 IC50) was 148 nM.

In the case of `CC(O)c1c(C2CCCNC2)nc2c(-c3cnn(C)c3)cnn2c1N` (single isomer, unassigned) [drawing 213], the IC50 on recombinant His-CHK1 (read-out: CHK1 IC50) amounted to 18 nM.
